Test results published in ChEMBL document CHEMBL2163296 (J Med Chem, 2012).
Active and inactive are the calls of the source. The calls are words filed in the database; no cut-off is given here.

How the values were obtained:
[1] = target: 5-hydroxytryptamine receptor 6 (Homo sapiens, UniProt P50406)
[2] = target: 5-hydroxytryptamine receptor 7 (Homo sapiens, UniProt P34969)
[3] = target: T1, 5-hydroxytryptamine receptor 2C (Homo sapiens, UniProt P28335)
T1 sequence (P28335 whole entry): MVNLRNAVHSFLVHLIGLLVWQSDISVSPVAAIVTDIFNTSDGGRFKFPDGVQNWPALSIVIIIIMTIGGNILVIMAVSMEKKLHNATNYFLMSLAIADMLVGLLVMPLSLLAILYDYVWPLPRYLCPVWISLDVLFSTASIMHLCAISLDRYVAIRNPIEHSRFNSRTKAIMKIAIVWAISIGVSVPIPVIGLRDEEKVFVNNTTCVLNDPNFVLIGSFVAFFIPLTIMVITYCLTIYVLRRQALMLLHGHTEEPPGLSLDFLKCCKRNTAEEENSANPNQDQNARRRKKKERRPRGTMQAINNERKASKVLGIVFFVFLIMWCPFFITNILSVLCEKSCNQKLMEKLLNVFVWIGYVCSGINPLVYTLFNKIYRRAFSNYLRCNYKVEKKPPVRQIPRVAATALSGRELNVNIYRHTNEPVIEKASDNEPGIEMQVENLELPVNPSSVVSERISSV

[4] = target: T2, 5-hydroxytryptamine receptor 1F (Homo sapiens) (UniProt P30939); test: Binding affinity to 5HT1F receptor after 1.5 hrs by scintillation counter
T2 sequence (whole entry): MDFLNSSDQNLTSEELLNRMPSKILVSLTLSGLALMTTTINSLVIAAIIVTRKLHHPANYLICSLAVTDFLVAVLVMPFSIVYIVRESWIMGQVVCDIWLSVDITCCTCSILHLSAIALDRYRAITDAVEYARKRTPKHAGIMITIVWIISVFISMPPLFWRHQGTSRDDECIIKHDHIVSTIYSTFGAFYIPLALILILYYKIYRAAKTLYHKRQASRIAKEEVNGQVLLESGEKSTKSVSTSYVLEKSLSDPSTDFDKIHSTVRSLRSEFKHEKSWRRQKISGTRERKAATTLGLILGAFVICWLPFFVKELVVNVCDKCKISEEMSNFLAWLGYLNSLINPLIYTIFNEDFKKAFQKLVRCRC

[5] = target: 5-hydroxytryptamine receptor 5A (Homo sapiens, UniProt P47898)
5-hydroxytryptamine receptor 5A, sequence (P47898 whole entry): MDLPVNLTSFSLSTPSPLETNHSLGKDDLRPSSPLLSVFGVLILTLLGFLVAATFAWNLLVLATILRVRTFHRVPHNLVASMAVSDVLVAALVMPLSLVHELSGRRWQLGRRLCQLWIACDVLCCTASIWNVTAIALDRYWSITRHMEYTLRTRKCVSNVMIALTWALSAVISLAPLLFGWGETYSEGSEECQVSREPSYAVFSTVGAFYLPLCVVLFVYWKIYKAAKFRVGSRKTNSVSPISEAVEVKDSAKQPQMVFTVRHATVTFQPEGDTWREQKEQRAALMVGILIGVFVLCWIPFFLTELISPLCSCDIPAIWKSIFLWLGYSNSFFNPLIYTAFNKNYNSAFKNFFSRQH

5-hydroxytryptamine receptor 7, sequence (P34969 whole entry): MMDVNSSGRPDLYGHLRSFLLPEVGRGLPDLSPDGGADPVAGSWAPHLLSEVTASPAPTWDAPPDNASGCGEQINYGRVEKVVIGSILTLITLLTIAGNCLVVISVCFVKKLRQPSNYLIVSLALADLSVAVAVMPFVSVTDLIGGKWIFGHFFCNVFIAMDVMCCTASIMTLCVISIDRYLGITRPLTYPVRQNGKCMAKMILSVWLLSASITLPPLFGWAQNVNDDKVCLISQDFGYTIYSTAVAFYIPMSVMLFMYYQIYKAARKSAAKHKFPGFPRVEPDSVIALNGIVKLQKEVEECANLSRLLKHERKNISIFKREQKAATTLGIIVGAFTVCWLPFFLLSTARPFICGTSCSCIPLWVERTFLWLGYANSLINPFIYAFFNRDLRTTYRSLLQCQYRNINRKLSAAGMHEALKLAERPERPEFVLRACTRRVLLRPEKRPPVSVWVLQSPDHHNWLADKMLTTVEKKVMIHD
5-hydroxytryptamine receptor 6, sequence (P50406 whole entry): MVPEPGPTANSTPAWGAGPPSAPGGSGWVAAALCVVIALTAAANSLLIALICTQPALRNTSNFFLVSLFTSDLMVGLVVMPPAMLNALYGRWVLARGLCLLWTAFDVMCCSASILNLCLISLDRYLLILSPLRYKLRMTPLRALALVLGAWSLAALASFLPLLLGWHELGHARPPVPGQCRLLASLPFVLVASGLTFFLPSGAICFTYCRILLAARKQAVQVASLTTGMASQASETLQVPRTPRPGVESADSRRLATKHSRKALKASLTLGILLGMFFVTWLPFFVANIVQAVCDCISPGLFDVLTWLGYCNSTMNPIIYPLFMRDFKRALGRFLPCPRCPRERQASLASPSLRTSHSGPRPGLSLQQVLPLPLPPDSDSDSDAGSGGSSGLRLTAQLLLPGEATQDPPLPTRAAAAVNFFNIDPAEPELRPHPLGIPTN

CNC(=O)c1cc(Oc2ccc(NC(=O)Nc3ccc(Cl)c(C(F)(F)F)c3)cc2)ccn1 [SORAFENIB]
Ki [1]: 6.21 µM | Ki [2]: 7.07 µM | Ki [3]: 0.417 µM | Activity [4]: inactive | Ki [5]: 3.3 µM
